In US20250034165A1, “COMPOUND CONTAINING CYCLOALKYL OR HALOALKYL” (CHIA TAI TIANQING PHARMACEUTICAL GROUP CO., LTD., priority 2021, published 2025):

Experiments:
[1] = target: EGFR (d746-750/T790M/C797S) (Homo sapiens (Human), UniProt P00533, C797S/DEL746-750/T790M); assay: Inhibitory activity for EGFR (d746-750/T790M/C797S) kinase; format: biochemical; conditions: ATP 5 μM; read-out: EGFR(d19/T790M/C797S) (IC50)
Description: 1.5 Screening for Inhibitory Activity for EGFR (d746-750/T790M/C797S) Kinase
(§1) A 50 ng/μL EGFR (d746-750/T790M/C797S, BPS) stock solution was diluted with a kinase buffer (50 mM HEPES, 10 mM MgCl2, 2 mM DTT, 1 mM EGTA, 0.01% Tween 20), and 6 μL of 1.67× working solution at 0.05 ng/μL (final concentration: 0.03 ng/μL) was added to each well. Different compounds dissolved in DMSO were added to the wells using a nanoliter pipettor, resulting in the final concentrations of the compounds of 10 nM to 0.0024 nM (4-fold gradient for 7 concentrations in total), and blank control wells (without enzyme) and negative control wells (with enzyme, plus vehicle DMSO) were set, 2 replicate wells for each concentration. After enzyme was reacted with the compound or vehicle for 30 min, 5×ATP at 25 μM (final concentration: 5 μM, Sigma) prepared with a kinase buffer was mixed with 5× substrate at 0.5 μM (final concentration: 0.1 μM, ULight-poly GT, PerkinElmer) at a ratio of 1:1 (v:v), and the mixture was added to each well at 4 μL/well. After being sealed with a film, the plate was incubated at room temperature for 2 h, and then 5 μL of 4×EDTA at 40 mM (final concentration: 10 mM) was added to each well. After the plate was incubated for 5 min at room temperature, 5 μL of 4× detection reagent at 8 nM (final concentration: 2 nM, Eu-anti-phospho-tyrosine antibody, PerkinElmer) was added to each well. After being incubated at room temperature for 1 h, the plate was read using a PerkinElmer Envision multi-mode microplate reader (excitation: 320 nm, emission: 665 nm), and IC50 was calculated by four-parameter fitting.

[2] = target: EGFR (d746-750 (d19)/T790M) (Homo sapiens (Human), UniProt P00533, DEL746-750/T790M); assay: Inhibitory activity for EGFR (d746-750 (d19)/T790M) kinase; format: biochemical; conditions: ATP 5 μM
Chain of EGFR (d746-750 (d19)/T790M) (P00533 other isoform, or with tags, fused parts or gaps T790M/del 1-668/del 746-750 limits assumed): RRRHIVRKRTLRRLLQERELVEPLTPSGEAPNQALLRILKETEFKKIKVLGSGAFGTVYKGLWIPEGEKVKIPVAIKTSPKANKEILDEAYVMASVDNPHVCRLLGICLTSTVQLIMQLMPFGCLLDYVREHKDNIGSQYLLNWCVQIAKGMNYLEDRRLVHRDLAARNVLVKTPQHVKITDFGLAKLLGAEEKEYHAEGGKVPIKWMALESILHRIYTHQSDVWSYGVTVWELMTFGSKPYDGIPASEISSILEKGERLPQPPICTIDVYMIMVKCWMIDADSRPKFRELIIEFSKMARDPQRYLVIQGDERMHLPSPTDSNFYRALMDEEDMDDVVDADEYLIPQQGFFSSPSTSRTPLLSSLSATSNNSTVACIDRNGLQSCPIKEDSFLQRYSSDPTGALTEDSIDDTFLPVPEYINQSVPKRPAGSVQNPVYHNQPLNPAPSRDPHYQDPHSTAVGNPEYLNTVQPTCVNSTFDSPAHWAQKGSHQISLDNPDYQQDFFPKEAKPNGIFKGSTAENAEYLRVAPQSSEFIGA
Description: 1.3 Screening for Inhibitory Activity for EGFR (d746-750 (d19)/T790M) Kinase
as §1, with “(d746-750/T790M, Carna)” for “(d746-750/T790M/C797S, BPS)”, “0.005” for “0.05”, “0.003” for “0.03”

[3] = tested on: BAF3-EGFR (L858R/T790M/C797S) cells; assay: Inhibition of proliferation of BAF3-EGFR (L858R/T790M/C797S) cells, CCK-8; format: cell-based; conditions: Ba/F3 EGFR, 72 h, read-out: BAF3(EGFR T790M L858R C797S) cell inhibitory activity IC50
Description: A flask of EGFR (L858R/T790M/C797S) cells in the logarithmic growth phase and good conditions was taken, and the cells were collected and added to a centrifuge tube. 20 μL of cells were taken and counted, and the required number of cells (mL) was pipetted and centrifuged at 1200 rpm for 3 min. The supernatant was discarded, and an appropriate amount of plating medium (RPMI medium+10% FBS) was added to adjust the cell density to 1.5×10^5 cells/mL. The cells were seeded on a 96-well plate at 100 μL/well using a multi-channel pipette and cultured in a cell incubator at 37° C., 5% CO2 with saturated humidity. After overnight incubation, compounds were loaded using a nanoliter pipettor, 2 duplicate wells were set for each concentration, and cells without compound added were used as negative controls.
Inhibition rate (%)=(mean value of negative control group-mean value of experimental group)/(mean value of negative control group−mean value of blank group)×100%.
A dose-response curve was fitted by four-parameter analysis, with the logarithm of compound concentration serving as abscissa and inhibition rate serving as ordinate, such that IC50 was calculated.

Chain of EGFR (d746-750/T790M/C797S) (P00533 other isoform, or with tags, fused parts or gaps T790M/C797S/del 1-694/del 746-750 limits assumed): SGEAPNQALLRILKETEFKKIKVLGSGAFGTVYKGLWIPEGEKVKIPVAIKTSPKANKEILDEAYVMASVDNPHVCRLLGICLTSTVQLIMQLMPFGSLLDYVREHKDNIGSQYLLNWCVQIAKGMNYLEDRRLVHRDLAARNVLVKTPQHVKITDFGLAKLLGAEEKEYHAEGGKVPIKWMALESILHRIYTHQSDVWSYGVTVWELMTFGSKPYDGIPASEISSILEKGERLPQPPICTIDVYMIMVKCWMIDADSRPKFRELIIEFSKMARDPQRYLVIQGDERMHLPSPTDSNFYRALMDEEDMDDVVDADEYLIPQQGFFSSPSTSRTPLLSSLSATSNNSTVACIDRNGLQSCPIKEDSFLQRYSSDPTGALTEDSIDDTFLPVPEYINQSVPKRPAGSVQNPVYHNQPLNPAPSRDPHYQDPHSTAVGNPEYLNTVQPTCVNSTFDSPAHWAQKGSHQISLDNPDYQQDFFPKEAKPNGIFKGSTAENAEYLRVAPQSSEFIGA

SMILES	IC50 [1] [pM]	IC50 [2] [pM]	IC50 [3] [pM]
Cc1cc2cc(n1)-c1cnn(C3CC3)c1OCCC[C@@H](C)CN1/C(=N/C2=O)Nc2cc(NCCN3CCOCC3)ccc21 [Example 5]	74	50	
Cc1cc2cc(n1)-c1cnn(C)c1OCCC[C@@H](C1CC1)CN1/C(=N/C2=O)Nc2ccc(N[C@@H](C)CN3CCCCC3)cc21 [Example 142]	79		< 5000
Cc1cc2cc(n1)-c1cnn(C)c1OCCC[C@@H](C1CC1)CN1/C(=N/C2=O)Nc2cc(NC3CC(F)C3)ccc21 (some centres unmarked) [Example 94]		750	
Cc1cc2cc(n1)-c1cnn(C)c1OCCC[C@@H](C1CC1)CN1/C(=N/C2=O)Nc2cc(NCCN3CCCCC3)ccc21 [Example 73]			< 5000
Cc1cc2cc(n1)-c1cnn(C3CC3)c1OCCC[C@@H](C)CN1/C(=N/C2=O)Nc2cc(NC[C@H]3COCCO3)ccc21 [Example 14]	100	68	
Cc1cc2cc(n1)-c1cnn(C3CC3)c1OCCC[C@@H](C)CN1/C(=N/C2=O)Nc2cc(NC3CCN(C)CC3)ccc21 [Example 12]	170	150	
Cc1cc2cc(n1)-c1cnn(C3CC3)c1OCCC[C@@H](C)CN1/C(=N/C2=O)Nc2ccc(N3CC[C@H](O)C3)cc21 [Example 16]	63	60	
Cc1cc2cc(n1)-c1cnn(C)c1OCCC[C@@H](C1CC1)CN1/C(=N/C2=O)Nc2cc(N[C@@H]3CC[C@H](O)C3)ccc21 [Example 150]			< 5000
Cc1cc2cc(n1)-c1cnn(C)c1OCCC[C@@H](C1CC1)CN1/C(=N/C2=O)Nc2cc(NC3CCC3)ccc21 [Example 79]	153	28	
Cc1cc2cc(n1)-c1cnn(C)c1OCCC[C@@H](C1CC1)CN1/C(=N/C2=O)Nc2cc(N[C@@H](C)CN3CCCCC3)ccc21 [Example 138]	87		< 5000
Cc1cc2cc(n1)-c1cnn(C)c1OCCC[C@@H](C1CC1)CN1/C(=N/C2=O)Nc2cc(N[C@@H](C)CCN3CCCCC3)ccc21 [Example 140]	77		< 5000
Cc1cc2cc(n1)-c1cnn(C)c1OCCC[C@@H](C1CC1)CN1/C(=N/C2=O)Nc2ccc(NC3CCCC3)cc21 [Example 87]	318	58	
[2H]C([2H])([2H])N(C[C@@H](C)Nc1ccc2c(c1)N1C[C@H](C3CC3)CCCOc3c(cnn3C)-c3cc(cc(C)n3)C(=O)/N=C/1N2)C([2H])([2H])[2H] [Example 145]			< 5000
Cc1cc2cc(n1)-c1cnn(C)c1OCCC[C@@H](C1CC1)CN1/C(=N/C2=O)Nc2cc(N[C@H](C)CN(C)C)ccc21 [Example 67]	83		< 5000
Cc1cc2cc(n1)-c1cnn(C3CC3)c1OCCC[C@@H](C)CN1/C(=N/C2=O)Nc2cc(N[C@@H]3CCOC3)ccc21 [Example 13]	110	58	
Cc1cc2cc(n1)-c1cnn(C)c1OCCC[C@@H](C1CC1)CN1/C(=N/C2=O)Nc2cc(NC3CC(N(C)C)C3)ccc21 (some centres unmarked) [Example 93]		110	
Cc1cc2cc(n1)-c1cnn(C)c1OCCC[C@@H](C1CC1)CN1/C(=N/C2=O)Nc2ccc(NC(=O)CN(C)C)cc21 [Example 111]	73		< 5000
Cc1cc2cc(n1)-c1cnn(C)c1OCCC[C@@H](C1CC1)CN1/C(=N/C2=O)Nc2ccc(NC(=O)CCCN(C)C)cc21 [Example 113]	66		
Cc1cc2cc(n1)-c1cnn(C)c1OCCC[C@@H](C1CC1)CN1/C(=N/C2=O)Nc2cc(N[C@H](C)CN3CCCCC3)ccc21 [Example 137]	85		< 5000

Further compounds by falling IC50 [1], results first:

IC50 [1] [pM]	IC50 [2] [pM]	IC50 [3] [pM]	SMILES
59	32		Cc1cc2cc(n1)-c1cnn(C)c1OCCC[C@@H](C1CC1)CN1/C(=N/C2=O)Nc2ccc(N3CC[C@H](O)C3)cc21 [Example 21]
53	38		Cc1cc2cc(n1)-c1cnn(C)c1OCCC[C@@H](C1CC1)CN1/C(=N/C2=O)Nc2cc(NCCCN)ccc21 [Example 50]
46	30		Cc1cc2cc(n1)-c1cnn(C)c1OCCC[C@@H](C1CC1)CN1/C(=N/C2=O)Nc2cc(NC3COC3(C)C)ccc21 (some centres unmarked) [Example 30]
42	18		Cc1cc2cc(n1)-c1cnn(C)c1OCCC[C@@H](C1CC1)CN1/C(=N/C2=O)Nc2ccc(NCCCN3CCCC3)cc21 [Example 84]
42	20		Cc1cc2cc(n1)-c1cnn(C)c1OCCC[C@@H](C1CC1)CN1/C(=N/C2=O)Nc2cc(N[C@@H]3CCCOC3)ccc21 [Example 18]
39	30		CNCCCNc1ccc2c(c1)N/C1=N\C(=O)c3cc(C)nc(c3)-c3cnn(C)c3OCCC[C@@H](C3CC3)CN12 [Example 49]
31	18		Cc1cc2cc(n1)-c1cnn(C)c1OCCC[C@@H](C1CC1)CN1/C(=N/C2=O)Nc2cc(NC3C(C)(C)OC3(C)C)ccc21 [Example 31]
28	21	< 5000	CNCCCCNc1ccc2c(c1)N/C1=N\C(=O)c3cc(C)nc(c3)-c3cnn(C)c3OCCC[C@@H](C3CC3)CN12 [Example 52]
28	14		Cc1cc2cc(n1)-c1cnn(C)c1OCCC[C@@H](C1CC1)CN1/C(=N/C2=O)Nc2cc(NCCN3CCOCC3)ccc21 [Example 3]
28	15		Cc1cc2cc(n1)-c1cnn(C)c1OCCC[C@@H](C1CC1)CN1/C(=N/C2=O)Nc2cc(NC[C@H]3COCCO3)ccc21 [Example 19]
26	15		Cc1cc2cc(n1)-c1cnn(C)c1OCCC[C@@H](C1CC1)CN1/C(=N/C2=O)Nc2cc(N[C@@H]3CCOC3)ccc21 [Example 43]
20	13	< 5000	Cc1cc2cc(n1)-c1cnn(C)c1OCCC[C@@H](C1CC1)CN1/C(=N/C2=O)Nc2cc(NCCCCN(C)C)ccc21 [Example 51]
16	14		Cc1cc2cc(n1)-c1cnn(C)c1OCCC[C@@H](C1CC1)CN1/C(=N/C2=O)Nc2cc(NC3(C)CNC3)ccc21 [Example 34]
13	10		Cc1cc2cc(n1)-c1cnn(C)c1OCCC[C@@H](C1CC1)CN1/C(=N/C2=O)Nc2cc(NC3CNC3)ccc21 [Example 32]
13	9.8	< 5000	Cc1cc2cc(n1)-c1cnn(C)c1OCCC[C@@H](C1CC1)CN1/C(=N/C2=O)Nc2cc(NCCCCN)ccc21 [Example 53]
